Reference: patent publication US20030232986A1, “Inhibitors of caspases” (Vertex Pharmaceuticals Incorporated, priority 1998, published 2003)
Read-outs that look alike come from different tables or passages of the source. Where a SMILES comes first, the peptide text is derived from it. [ ]: non-standard residue; d: D form. The star is where a group is joined. Tle = CC(C)(C)[C@H](N)C(=O)O; Bz = O=C(c1ccccc1)*

How the values were obtained:
[1] = molecular target: T1, Caspase-1 (Homo sapiens, UniProt P29466); assay: Caspase-1 enzyme inhibition (Ki); format: biochemical
T1 sequence (P29466 120-297 limits assumed): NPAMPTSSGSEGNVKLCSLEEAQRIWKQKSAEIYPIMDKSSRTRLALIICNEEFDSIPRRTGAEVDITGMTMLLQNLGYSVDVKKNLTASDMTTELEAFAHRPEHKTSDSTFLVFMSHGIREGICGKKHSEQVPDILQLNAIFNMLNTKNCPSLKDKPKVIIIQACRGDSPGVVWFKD
T1 sequence (P29466 317-404 limits assumed): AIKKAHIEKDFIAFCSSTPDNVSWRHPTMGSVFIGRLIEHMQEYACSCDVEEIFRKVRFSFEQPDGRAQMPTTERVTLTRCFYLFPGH
Experimental: Ki values for test compounds with the various caspases were obtained by the method of Margolin et al. (J. Biol. Chem., 272 pp. 7223-7228 (1997)). Assays were performed in 10 mM Tris (Sigma Corp, St Louis Mo.) pH 7.5, 1 mM Dithiothreitol (DTT, Research Organic INC, Cleveland, Ohio) and 0.1% CHAPS (Pierce, Rockford Ill.) at 37° C. For caspase-3, a solution of 8% glycerol was added to the assay buffer to improve enzyme stability. A 65 μL aliquot of the assay buffer and 5 μL aliquot of the appropriate dilutions of inhibitor in DMSO where pipetted into a 96 well plate, treated with 10 μL of caspase, then diluted in assay buffer (0.5-40 nM active protein by active site titration). A control containing DMSO but no compound was included for each determination. The plates were then incubated for 15 minutes at 37° C., before addition of the appropriate substrate (20 μL, final concentration 1-4×KM, final assay volume 100 μL) to initiate the reaction. Reaction rates were measured at 37° C. either by following the time dependant increase in absorbance at 405 nm (for the pNA substrates) or in fluorescence (Ex 390, Em 460) (for the AMC substrates). The rates obtained were plotted against inhibitor concentration and the data fit to the Morrison tight-binding equation for competitive inhibitors (Morrison, J. F., Biochem. Biophys. Acta, 185 pp. 269-286 (1969)). The substrates used for the individual assays were as follows:
Caspase-1 Suc-YVAD-pNA (Bachem, King of Prussia, Pa.) (final concentration in the assay 80 μM),

[2] = system: Human Peripheral Blood Mononuclear Cells (PBMC), mature IL-1β; assay: PBMC cell assay: IL-1β assay with human peripheral blood mononuclear cells; format: cell-based; details: LPS-stimulated human PBMC, mature IL-1β in supernatant by ELISA
Source text: IL-1β Assay with a Mixed Population of Human Peripheral Blood Mononuclear Cells (PBMC) or Enriched Adherent Mononuclear Cells
Processing of pre-IL-1β by ICE can be measured in cell culture using a variety of cell sources. Human PBMC obtained from healthy donors provides a mixed population of lymphocyte subtypes and mononuclear cells that produce a spectrum of interleukins and cytokines in response to many classes of physiological stimulators. Adherent mononuclear cells from PBMC provides an enriched source of normal monocytes for selective studies of cytokine production by activated cells.
An initial dilution series of test compound in DMSO or ethanol is prepared, with a subsequent dilution into RPMI-10% FBS media (containing 2 mM L-glutamine, 10 mM HEPES, 50 U and 50 ug/ml pen/strep) respectively to yield drugs at 4× the final test concentration containing 0.4% DMSO or 0.4% ethanol. The final concentration of DMSO is 0.1% for all drug dilutions. A concentration titration which brackets the apparent Ki for a test compound determined in an ICE inhibition assay is generally used for the primary compound screen.
Generally 5-6 compound dilutions are tested and the cellular component of the assay is performed in duplicate, with duplicate ELISA determinations on each cell culture supernatant.
Buffy coat cells isolated from one pint human blood (yielding 40-45 ml final volume plasma plus cells) are diluted with media to 80 ml and LeukoPREP separation tubes (Becton Dickinson) are each overlaid with 10 ml of cell suspension. After 15 min centrifugation at 1500-1800×g, the plasma/media layer is aspirated and then the mononuclear cell layer is collected with a Pasteur pipette and transferred to a 15 ml conical centrifuge tube (Corning). Media is added to bring the volume to 15 ml, gently mix the cells by inversion and centrifuge at 300×g for 15 min. The PBMC pellet is resuspended in a small volume of media, the cells are counted and adjusted to 6×10^6 cells/ml.
For the cellular assay, 1.0 ml of the cell suspension is added to each well of a 24-well flat bottom tissue culture plate (Corning), 0.5 ml test compound dilution and 0.5 ml LPS solution (Sigma #L-3012; 20 ng/ml solution prepared in complete RPMI media; final LPS concentration 5 ng/ml). The 0.5 ml additions of test compound and LPS are usually sufficient to mix the contents of the wells. Three control mixtures are run per experiment, with either LPS alone, solvent vehicle control, and/or additional media to adjust the final culture volume to 2.0 ml. The cell cultures are incubated for 16-18 hr at 37° C. in the presence of 5% CO2.
At the end of the incubation period, cells are harvested and transferred to 15 ml conical centrifuge tubes. After centrifugation for 10 min at 200×g, supernatants are harvested and transferred to 1.5 ml Eppendorf tubes. It may be noted that the cell pellet may be utilized for a biochemical evaluation of pre-IL-1β and/or mature IL-1β content in cytosol extracts by Western blotting or ELISA with pre-IL-1β specific antisera.
PBMC are isolated and prepared as described above. Media (1.0 ml) is first added to wells followed by 0.5 ml of the PBMC suspension. After a one hour incubation, plates are gently shaken and nonadherent cells aspirated from each well. Wells are then gently washed three times with 1.0 ml of media and final resuspended in 1.0 ml media. The enrichment for adherent cells generally yields 2.5-3.0×10^5 cells per well. The addition of test compounds, LPS, cell incubation conditions and processing of supernatants proceeds as described above.
Quantikine kits (R&D Systems) may be used for the measurement of mature IL-1β. Assays are performed according to the manufacturer's directions. Mature IL-1β levels of about 1-3 ng/ml in both PBMC and adherent mononuclear cell positive controls are observed. […]

[3] = substrate Suc-YVAD-pNA 80 μM, 37° C., pH 7.5

| Structure (SMILES) | Ki [1, 3] [nM] | IC50 [2] [nM] | Ki [1] [nM] |
| --- | --- | --- | --- |
| COc1c(Cl)cc(C(=O)N[C@H](C(=O)N2CCC[C@H]2C(=O)N[C@H](C=O)CC(=O)O)C(C)C)cc1Cl [Example 5al] | < 10 | > 2000 | – |
| CC(C)[C@H](NC(=O)c1ccc(C(C)(C)C)cc1)C(=O)N1CCC[C@H]1C(=O)N[C@H](C=O)CC(=O)O [Example 5am] | < 10 | > 2000 | – |
| CCCN(CCC)S(=O)(=O)c1ccc(C(=O)N[C@H](C(=O)N2CCC[C@H]2C(=O)N[C@H](C=O)CC(=O)O)C(C)C)cc1 [Example 5ao] | 10 to 1000 | > 2000 | – |
| CC(C)[C@H](NC(=O)c1csc(C2COc3ccccc3O2)n1)C(=O)N1CCC[C@H]1C(=O)N[C@H](C=O)CC(=O)O (stereo partly shown) [Example 5aq] | 10 to 1000 | > 2000 | – |
| Cc1nn(C)c2ncc(C(=O)N[C@H](C(=O)N3CCC[C@H]3C(=O)N[C@H](C=O)CC(=O)O)C(C)C)c(SC(C)C)c12 [Example 5ar] | < 10 | > 2000 | – |
| CC(C)[C@H](NC(=O)c1ccc2ncsc2c1)C(=O)N1CCC[C@H]1C(=O)N[C@H](C=O)CC(=O)O [Example 5as] | < 10 | > 2000 | – |
| CCCc1c(C(=O)N[C@H](C(=O)N2CCC[C@H]2C(=O)N[C@H](C=O)CC(=O)O)C(C)C)cnn1-c1ccc(Cl)cc1 [Example 5at] | 10 to 1000 | > 2000 | – |
| Cc1oc(-c2ccccc2)cc1C(=O)N[C@H](C(=O)N1CCC[C@H]1C(=O)N[C@H](C=O)CC(=O)O)C(C)C [Example 5au] | 10 to 1000 | > 2000 | – |
| CC(C)[C@H](NC(=O)c1ccc(CSc2ccccn2)o1)C(=O)N1CCC[C@H]1C(=O)N[C@H](C=O)CC(=O)O [Example 5av] | 10 to 1000 | > 2000 | – |
| COc1cccc(Oc2ccc(OC)cc2C(=O)N[C@H](C(=O)N2CCC[C@H]2C(=O)N[C@H](C=O)CC(=O)O)C(C)C)c1 [Example 5aw] | < 10 | 1000 to 2000 | – |
| CC(C)[C@H](NC(=O)c1ccccc1-c1ccc(C(F)(F)F)cc1)C(=O)N1CCC[C@H]1C(=O)N[C@H](C=O)CC(=O)O [Example 5ba] | < 10 | 1000 to 2000 | – |
| CCCc1ccc(-c2ccc(C(=O)N[C@H](C(=O)N3CCC[C@H]3C(=O)N[C@H](C=O)CC(=O)O)C(C)C)cc2)cc1 [Example 5bd] | < 10 | 1000 to 2000 | – |
| Cc1ccc2ccccc2c1C(=O)N[C@H](C(=O)N1CCC[C@H]1C(=O)N[C@H](C=O)CC(=O)O)C(C)C [Example 5g] | 10 to 1000 | 1000 to 2000 | – |
| CC(C)Cc1ccc(C(C)C(=O)N[C@H](C(=O)N2CCC[C@H]2C(=O)N[C@H](C=O)CC(=O)O)C(C)C)cc1 (stereo partly shown) [Example 5v] | 10 to 1000 | > 2000 | 10 to 1000 |
| COc1c(Cl)cc(C(=O)N[C@H](C(=O)N2CCNC[C@H]2C(=O)N[C@H](C=O)CC(=O)O)C(C)C)cc1Cl [Example 15d] | 10 to 1000 | 1000 to 2000 | – |
| CC(C)[C@H](NC(=O)c1ccc(N)c(Cl)c1)C(=O)N1CCNC[C@H]1C(=O)N[C@H](C=O)CC(=O)O [Example 15e] | 10 to 1000 | > 2000 | – |
| CC(C)[C@H](NC(=O)c1nccc2ccccc12)C(=O)N1CCNC[C@H]1C(=O)N[C@H](C=O)CC(=O)O [Example 15f] | 10 to 1000 | > 2000 | – |
| C[C@H](NC(=O)c1nccc2ccccc12)C(=O)N1CCNC[C@H]1C(=O)N[C@H](C=O)CC(=O)O [Example 16a] | 10 to 1000 | < 500 | – |
| CC(C)[C@H](NC(=O)c1nccc2ccccc12)C(=O)N1CCN(C)C[C@H]1C(=O)N[C@H](C=O)CC(=O)O [Example 17b] | 10 to 1000 | 1000 to 2000 | – |
| COc1c(Cl)cc(C(=O)N[C@H](C(=O)N2CCN(C(C)=O)C[C@H]2C(=O)N[C@H](C=O)CC(=O)O)C(C)C)cc1Cl [Example 17c] | < 10 | > 2000 | – |
| CC(=O)N1CCN(C(=O)[C@@H](NC(=O)c2ccc(N)c(Cl)c2)C(C)C)[C@H](C(=O)N[C@H](C=O)CC(=O)O)C1 [Example 17d] | 10 to 1000 | > 2000 | – |
| CC(=O)N1CCN(C(=O)[C@@H](NC(=O)c2nccc3ccccc23)C(C)C)[C@H](C(=O)N[C@H](C=O)CC(=O)O)C1 [Example 17e] | 10 to 1000 | 500 to 1000 | – |
| CS(=O)(=O)CC[C@H](NC(=O)c1ccc(N)c(Cl)c1)C(=O)N1CCC[C@H]1C(=O)N[C@H](C=O)CC(=O)O [Example 20j] | 10 to 1000 | > 2000 | – |
| CC(C)[C@H](N)C(=O)N1CC(c2ccccc2)[C@H]1C(=O)N[C@H](C=O)CC(=O)O (stereo partly shown) [Example 24b] | > 1000 | > 2000 | – |
| CC(C)[C@H](NC(=O)c1ccccc1)C(=O)N1CC[C@H](C)[C@H]1C(=O)N[C@H](C=O)CC(=O)O [Example 26a] | < 10 | 1000 to 2000 | – |
| Cc1cc(C(=O)N[C@H](C(=O)N2CC[C@H](C)[C@H]2C(=O)N[C@H](C=O)CC(=O)O)C(C)C)cc(C)c1O [Example 26b] | < 10 | 500 to 1000 | – |
| C[C@H](NC(=O)[C@@H](NC(=O)c1ccccc1)C(C)(C)C)C(=O)N[C@H](C=O)CC(=O)O [Example 29m] (Bz-[Tle]-Ala-Asp-aldehyde) | < 10 | 500 to 1000 | – |
